One assay has as its target T1, EED (1-441)-His protein (Homo sapiens, UniProt O75530).
T1 construct: 30 nM EED (1-441)-His protein
The assay is described as follows: EED-H3K27Me3 peptide competition binding assay by AlphaScreen. The conditions noted are these: read-out: (a) IC50, EED Alphascreen binding Qualified. The procedure: EED-H3K27Me3 Peptide Competition Binding Assay by AlphaScreen (α-Screen)
To assess the compounds' potency in the EED-H3K27Me3 competition binding assay, compounds were serially diluted 3-fold in DMSO to obtain a total of twelve concentrations. Then compounds at each concentration (75 nL of each) were transferred by Mosquito into a 384-well Perkin Elmer ProxiPlate 384 plus plates. 8 uL of solutions containing 30 nM EED (1-441)-His protein and 15 nM biotin-H3K27Me3 (19-33) peptide in the buffer (25 mM HEPES, pH 8, 0.02% Tween-20, 0.5% BSA) were added to the wells and then incubated with compound for 20 min. AlphaScreen detection beads mix was prepared immediately before use by mixing nickel chelate acceptor beads and streptavidin donor beads in a 1:1 ratio (Perkin Elmer, Product No. 6760619C/M/R) into the buffer described above. Then 4 μL of detection beads mix was added to the plate and incubate in the dark at the rt for 1 h. The final concentration of donor and acceptor beads was 10 μg/mL for each. Plates were read on EnVision (PerkinElmer) using the AlphaScreen setting adapted for optimal signal detection with a 615 nm filter, after sample excitation at 680 nm. The emission signal at 615 nm was used to quantify compounds inhibition. AlphaScreen signals were normalized based on the reading coming from the positive (maximum signal control) and negative controls (minimum signal control) to give percentage of activities left. The data were then fit to a dose response equation using the program Helios (Novartis) to get the IC50 values. Helios is a Novartis in-house assay data analysis software using the methods described by Normolle, D. P., Statistics in Medicine, 12:2025-2042 (1993); Formenko, I. et al, Computer Methods and Programs in Biomedicine, 82, 31-37 (2006); Sebaugh, J. L., Pharmaceutical Statistics, 10:128-134 (2011); Kelly, C. et al., Biometrics, 46(4):1071-1085 (1990); and Kahm, M. et al., Journal of Statistical Software, 33 (7): (2010) (grofit: Fitting Biological Growth Curves with R, pages 1-21, available at http://www.jstatsoft.org/).

Assay [1] has as its system H3K27 methylation in G401 cell. Kind of assay: ELISA (H3K27 methylation) assay in G401 cells. The conditions noted are these: Homo sapiens, G-401, read-out: (c) IC50, ELISA Qualified. It counts as cell-based, human. The method, then:
Compounds of the present invention were assessed for their ability to inhibit PRC2 activity in a pentameric complex of EZH2, SUZ12, EED, Rbap48 and AEBP in biochemical assays. The ability of compounds of the present invention to inhibit cellular activity of PRC2 was assessed by analysing histone H3 lysine 27 methylation in human cell lines. The ability of compounds of the present invention to inhibit cancers was derived from their ability to modulate activity in human cancer cell lines bearing specific dependence to PRC2 activity to maintain cancerous growth.
ELISA (H3K27 Methylation) Assay
Representative compounds of the present invention were serially and separately diluted 3-fold in DMSO to obtain a total of eight or twelve concentrations. Then the compounds were added to G401 cell cultured in 384-well plate at 1:500 dilution to obtain the highest concentration of 20 μM. The cells were further cultured for 48 h before ELISA procedure.
Histone extraction: Cells, in 384-well plate, were washed with PBS (10×PBS buffer (80 g NaCl (Sigma, S3014), 2 g KCl (Sigma, 60128), 14.4 g Na2HPO4 (Sigma, S5136), 2.4 g KH2PO4 (Sigma, P9791) to 1 L water, pH to 7.4) and lysed with the addition of lysis buffer (0.4N HCl; 45 μL per well). The plate was gently agitated at 4° C. for 30 min. The cell lysate was neutralized with neutralization buffer (0.5 M sodium phosphate dibasic, pH 12.5, 1 mM DTT; 36 μL per well). The plate was agitated to ensure the lysates were well mixed prior to the ELISA protocol.
ELISA protocol: Cell lysates were transferred to the wells of a 384-well plate and the final volume was adjusted to 50 μL per well with PBS. The plate was sealed, centrifuged at 2,000 rpm for 2 min and incubated at 4° C. for about 16 h. The plate was washed with TBST buffer (1×TBS (10×TBS: 24.2 g Tris (Sigma, T6066), 80 g NaCl (Sigma, S3014) to 1 L of water and adjust pH to 7.6 with HCl) with 0.1% Tween-20). Blocking buffer (TBST, 5% BSA; 50 μL per well) was added and the plate was incubated for 1 h at rt. The blocking buffer was removed and primary antibody was added (30 μL per well). The following dilutions were performed with blocking buffer: for anti-H3K27me3 antibody (Cell Signaling Technology, #9733), dilution was 1:1000; for anti-H3K27me2 antibody (Cell Signaling Technology, #9288), dilution was 1:100; for anti-H3 antibody (Abcam, Cat #24834), dilution was 1:1000. The primary antibody was incubated in the plate at rt for 1 h. The wells were washed with TBST and incubated with secondary antibody for 1 h at rt. For secondary antibodies, the following dilutions were carried out with blocking buffer: anti-rabbit antibody (Jackson ImmunoResearch, #111-035-003), dilution was 1:2000; and anti-mouse antibody (Cell signaling technology, #7076), dilution was 1:1000. After 1 h of incubation at rt, the wells were washed with TBST. ECL substrate (Pierce, #34080) was added at 30 μL per well and the plates were centrifuged at 2,000 rpm for 2 min. The signal was read using a PerkinElmer Envision Reader. The H3K27 methylation readouts were normalized using H3 signal and then percentage inhibition was calculated against the samples treated with DMSO. The data were then fit to a dose response curve using the program Helios to get the IC50 values of the test compound.

This note sets out measurements from patent US10689378B2, “Triazolopyridine compounds and uses thereof” (Novartis AG, priority 2016, dated 2020).

Molecules are shown by their SMILES.

T1 sequence (O75530 whole entry): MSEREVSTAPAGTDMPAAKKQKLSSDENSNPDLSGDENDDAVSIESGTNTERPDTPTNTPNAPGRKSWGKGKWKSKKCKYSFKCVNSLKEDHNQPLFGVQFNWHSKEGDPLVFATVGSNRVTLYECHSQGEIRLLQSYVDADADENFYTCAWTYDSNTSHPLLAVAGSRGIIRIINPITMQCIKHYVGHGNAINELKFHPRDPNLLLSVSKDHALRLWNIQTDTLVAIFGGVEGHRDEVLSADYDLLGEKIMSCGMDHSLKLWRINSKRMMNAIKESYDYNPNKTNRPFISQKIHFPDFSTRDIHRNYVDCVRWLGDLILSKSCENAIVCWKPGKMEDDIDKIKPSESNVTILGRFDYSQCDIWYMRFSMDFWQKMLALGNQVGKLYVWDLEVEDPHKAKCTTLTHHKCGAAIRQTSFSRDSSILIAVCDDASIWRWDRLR

As usually defined, the IC50 is the concentration at which inhibition is half-maximal. With `COc1ccccc1CNc1ccc(-c2ccc(NC(C)=O)cc2)c2nncn12` [Example 80, N-(4-(5-((2-methoxybenzyl)amino)-[1,2,4]triazolo[4,3-a]pyridin-8-yl)phenyl) acetamide], the IC50 at EED (1-441)-His protein is 224 nM; in assay [1], 779 nM.

Turning to `COc1ccc(F)cc1CNc1ccc(-c2ccc(CN(C)C)cc2)c2nncn12` [Example 81, 8-(4-((dimethylamino)methyl)phenyl)-N-(5-fluoro-2-methoxybenzyl)-[1,2,4]triazolo[4,3-a]pyridin-5-amine], the IC50 on EED (1-441)-His protein worked out at 387 nM; in assay [1], 928 nM.

Take `COc1cc(F)ccc1CNc1ccc(-c2ccc(S(=O)(=O)N(C)C)cc2)c2nncn12` [Example 84, 4-(5-((4-fluoro-2-methoxybenzyl)amino)-[1,2,4]triazolo[4,3-a]pyridin-8-yl)-N,N-dimethylbenzene sulfonamide]: the IC50 was determined as 177 nM on EED (1-441)-His protein and 1180 nM in assay [1].

Regarding `COc1cc(F)ccc1CNc1ccc(-c2ccc(NS(C)(=O)=O)cc2)c2nncn12` [Example 85, N-(4-(5-((4-fluoro-2-methoxybenzyl)amino)-[1,2,4]triazolo[4,3-a]pyridin-8-yl)phenyl)methane sulfonamide], the IC50 at EED (1-441)-His protein worked out at 186 nM; in assay [1], 1030 nM.

Turning to `COc1c(F)cccc1CNc1ccc(-c2ccc(CN(C)C)cc2)c2nncn12` [Example 86, 8-(4-((dimethylamino)methyl)phenyl)-N-(3-fluoro-2-methoxybenzyl)-[1,2,4] triazolo[4,3-a]pyridin-5-amine], the values for the IC50 (on EED (1-441)-His protein; in assay [1]) were 218 nM and 529 nM, respectively.

For `COc1cc(F)ccc1CNc1ccc(-c2ccc(N3CCN(C(C)C)CC3)nc2)c2nncn12` [Example 88, N-(4-fluoro-2-methoxybenzyl)-8-(6-(4-isopropylpiperazin-1-yl)pyridin-3-yl)-[1,2,4] triazolo[4,3-a]pyridin-5-amine], the IC50 at EED (1-441)-His protein is 178 nM; in assay [1], 500 nM.

In the case of `COc1cc(F)ccc1CNc1ccc(-c2ccc(S(N)(=O)=O)cc2)c2nncn12` [Example 89, 4-(5-((4-fluoro-2-methoxybenzyl)amino)-[1,2,4]triazolo[4,3-a]pyridin-8-yl)benzenesulfonamide], the IC50 on EED (1-441)-His protein was 132 nM; in assay [1], 1480 nM.

With `COc1cc(F)ccc1CNc1ccc(-c2cnc(N3CCN(C(C)C)CC3)c(C(F)(F)F)c2)c2nncn12` [Example 90, N-(4-fluoro-2-methoxybenzyl)-8-(6-(4-isopropylpiperazin-1-yl)-5-(trifluoromethyl)pyridin-3-yl)-[1,2,4]triazolo[4,3-a] pyridin-5-amine], the IC50 on EED (1-441)-His protein was 410 nM; in assay [1] it was 2130 nM.

Take `COc1cc(F)ccc1CNc1ccc(-c2ccncc2)c2nncn12` [Example 92, N-(4-fluoro-2-methoxybenzyl)-8-(pyridin-4-yl)-[1,2,4]triazolo[4,3-a]pyridin-5-amine]: the results for the IC50 (on EED (1-441)-His protein; in assay [1]) were 138 nM and 299 nM, respectively.

Take `COc1cc(F)ccc1CNc1ccc(-c2cccnc2)c2nncn12` [Example 93, N-(4-fluoro-2-methoxybenzyl)-8-(pyridin-3-yl)-[1,2,4]triazolo[4,3-a]pyridin-5-amine]: the IC50 at EED (1-441)-His protein came to 162 nM; in assay [1], 400 nM.

Take `COc1ccccc1CNc1ccc(-c2cncc(S(C)(=O)=O)c2)c2nncn12` [Example 95, N-(2-methoxybenzyl)-8-(5-(methylsulfonyl)pyridin-3-yl)-[1,2,4]triazolo[4,3-a] pyridin-5-amine]: the IC50 at EED (1-441)-His protein amounted to 177 nM; in assay [1], 164 nM.

In the case of `COc1cc(F)ccc1CNc1ccc(-c2ccc(C(=O)N3CCCC3)cc2)c2nncn12` [Example 96, (4-(5-((4-fluoro-2-methoxy benzyl)amino)-[1,2,4]triazolo[4,3-a]pyridin-8-yl)phenyl)(pyrrolidin-1-yl) methanone], the results for the half-maximal inhibitory concentration (IC50) (on EED (1-441)-His protein; in assay [1]) were 105 nM and 253 nM, respectively.

Consider `COc1cc(F)ccc1CNc1ccc(-c2cnc(N3CCN(C(C)C)CC3)c(Cl)c2)c2nncn12` [Example 97, 8-(5-chloro-6-(4-isopropylpiperazin-1-yl)pyridin-3-yl)-N-(4-fluoro-2-methoxybenzyl)-[1,2,4]triazolo[4,3-a] pyridin-5-amine], for which the figures for the IC50 (on EED (1-441)-His protein; in assay [1]) were 105 nM and 776 nM, respectively.

`COc1cc(CNc2ccc(-c3ccc(CN(C)C)cc3)c3nncn23)c(F)cc1F` [Example 98, N-(2,4-difluoro-5-methoxybenzyl)-8-(4-((dimethylamino)methyl)phenyl)-[1,2,4]triazolo[4,3-a] pyridin-5-amine]: the concentration for half-maximal inhibition (IC50) at EED (1-441)-His protein turned out to be 359 nM; in assay [1] it was 287 nM.

On to `COc1ccc(F)c(CNc2ccc(-c3ccncc3)c3nncn23)c1` [Example 99, N-(2-fluoro-5-methoxybenzyl)-8-(pyridin-4-yl)-[1,2,4]triazolo[4,3-a] pyridin-5-amine], for which the IC50 at EED (1-441)-His protein worked out at 255 nM; in assay [1], 385 nM.

For `COc1cc(F)c(F)cc1CNc1ccc(-c2ccc(CN(C)C)cc2)c2nncn12` [Example 103, N-(4,5-difluoro-2-methoxybenzyl)-8-(4-((dimethylamino)methyl)phenyl)-[1,2,4]triazolo[4,3-a] pyridin-5-amine], the IC50 is 2860 nM on EED (1-441)-His protein and 8210 nM in assay [1].

For the compound `COc1cc(F)ccc1CNc1ccc(-c2cnc(N3CCN(C(C)C)CC3)nc2)c2nncn12` [Example 104, N-(4-fluoro-2-methoxybenzyl)-8-(2-(4-isopropylpiperazin-1-yl)pyrimidin-5-yl)-[1,2,4]triazolo[4,3-a] pyridin-5-amine], the IC50 on EED (1-441)-His protein came to 160 nM; in assay [1] it was 132 nM.

With `COc1ccccc1CNc1ccc(-c2c(C)nn(C)c2C)c2nncn12` [Example 110, N-(2-methoxybenzyl)-8-(1,3,5-trimethyl-1H-pyrazol-4-yl)-[1,2,4]triazolo[4,3-a] pyridin-5-amine], the IC50 on EED (1-441)-His protein is 127 nM; in assay [1], 74.2 nM.

Turning to `COc1ccc(F)cc1CNc1ccc(-c2ccc(S(C)(=O)=O)nc2)c2nncn12` [Example 115, N-(5-fluoro-2-methoxybenzyl)-8-(6-(methylsulfonyl)pyridin-3-yl)-[1,2,4]triazolo[4,3-a] pyridin-5-amine], the IC50 on EED (1-441)-His protein worked out at 831 nM; in assay [1] it was 696 nM.
